Experiments:
Assay type in all cases: cell-based, human
[1] = test system: SMN protein; experiment: Western blotting of SMN protein in GM00232 cells; conditions: GM00232, 72 h
Protocol: (§1) To further verify the effect of ASO-10-27 and DS06-0004 alone or in combination on SMN2 gene expression, western blotting assays were performed in GM00232 cells transfected individually or in combination with ASO-10-27 and DS06-0004. […] DS06-0004 at 1 nM, 5 nM and 25 nM increased SMN2FL by 1.2, 1.3 and 1.7 fold, respectively (FIGS. 5B and 5C).
(§2) SMA patient derived fibroblasts were obtained from Coriell Institute (Camden, N.J., USA), including GM00232 (SMA type I with 2 copies of SMN2 gene) and GM03813 (SMA type II with 3 copies of SMN2 gene). These cells were cultured at 5% C02 and 37° C. in modified MEM medium (Gibco, Thermo Fisher Scientific, Carlsbad, Calif.) supplemented with 15% bovine calf serum (Sigma-Aldrich), 1% NEAA (Gibco) and 1% penicillin/streptomycin (Gibco). To transfect oligonucleotides including saRNAs, siRNA and ASO, cells were seeded into 6-well plates at a density of 1×10^5 cells/well and were transfected with oligonucleotides at different concentrations using RNAiMax (Invitrogen, Carlsbad, Calif.) according to the reverse transfection protocol provided by the manufacturer for 72 hours (unless otherwise specified). For Risdiplam treatment of cells, Risdiplam (HY-109101, MedChem Express Company, Monmouth Junction, N.J., USA) dissolved in DMSO was added directly to cells at desired concentration for 72 hours unless specified otherwise.
(§3) Proteins were harvested from transfected cells using 1×RIPA Buffer including protease inhibitors and detected the protein concentration by BCA protein assay kits (Beyotime, P0010, China). To isolated proteins from animal tissues, tissues were harvested and lysed using 1×RIPA Buffer. Protein concentrations were measured by using BCA protein assay kits. Protein electrophoresis was performed (10 ug protein/well) with the use of a sodium dodecyl sulfate polyacrylamide gel electrophoresis (PAGE) gel, which was then transferred to a polyvinylidene difluoride (0.45 μm PVDF) membrane. The membranes were blotted with primary anti-SMN (CST, 19276, USA) or anti-α/β-Tubulin (CST, 2148s, USA) antibodies at 4° C. overnight. After three washes with TBST buffer, the membranes were incubated with anti-IgG, horseradish peroxidase-conjugated secondary antibodies (CST, 7074s and 7076s, USA) for 1 h at room temperature (RT). The membranes were then washed with TBST buffer three times for 10 min each and analyzed by Image Lab (BIO-RAD, Chemistry Doctm MP Imaging System). Band densities of SMN protein and α/β-Tubulin were quantified using ImageJ software.

[2] = test system: SMN protein; experiment: Western blotting of SMN protein in GM03813 cells; conditions: GM03813, 72 h
Protocol: as §1, with “GM03813” for “GM00232”, “1.5-, 1.5-” for “1.2, 1.3”, “1.6-fold,” for “1.7 fold,”, “7B” for “5B”, “7C).” for “5C).”
as §2, §3

[3] = test system: SMN2 mRNA; experiment: RT-qPCR of SMN2FL and SMN2 Δ7 mRNA in GM03813 cells; conditions: for maximum increase of SMN2FL (ceiling effect): GM03813, 72 h (Example 1)
Description: “GM03813 cells” refers to fibroblast cells provided by Coriell Institute for Medical Research. This cell line is described as SPINAL MUSCULAR ATROPHY, TYPE II; SMA2 SURVIVAL OF MOTOR NEURON 1, TELOMERIC; SMN1. The relevant gene is SMN1; the chromosomal location is 5q12.2-q13.3, the allelic variant is described as 1 exons 7 and 8 deleted, SPINAL MUSCULAR ATROPHY, TYPE I; and the identified mutation: is EX7-8DEL.
Seventy-two hours later, total cellular RNA was isolated from the treated cells and reverse transcribed into cDNA. SMN2 mRNA expression was assessed with RT-qPCR using primer pairs specific for SMN2FL or SMN2 Δ7. SMN2 mRNA expression was also assessed by semi-quantitative RT-PCR using a primer pair that amplifies both SMN2FL and SMN2 Δ7 followed by DdeI digestion (PCR/digestion). […] After digestion, both bands were reduced by 115 bp, resulting in two products: 392 bp (SMN2FL) and 338 bp (SMN2 Δ7) as shown on the gel of FIG. 3D. FIG. 3A-3D show dose-dependent changes in SMN2FL and SMNΔ7 mRNA as assessed by RT-qPCR and PCR/digestion respectively. FIG. 3E-3G are graphic plots of data from quantitating the intensity of bands in FIG. 3D.
as §2
For RNA isolation from cultured cells, total cellular RNA was isolated from treated cells using an RNeasy Plus Mini kit (Qiagen, Hilden, Germany) according to its manual. To isolated RNA from animal tissues, tissues were harvested and stored at RNA later (AM7021, Thermo Fisher). Total RNA was then isolated using MagPure Total RNA Micro LQ kit (Magen, R6621, China) by auto-pure96 machine (ALLSHENG, China). The resultant RNA (1 μg) was reverse transcribed into cDNA by using a PrimeScript RT kit containing gDNA Eraser (Takara, Shlga, Japan). The resultant cDNA was amplified in an ABI 7500 Fast Real-time PCR System (Applied Biosystems; Foster City, Calif.) using SYBR Premix Ex Taq 11 (Takara, Shlga, Japan) reagents and primers which specifically amplified full-length (SMN2FL) or A7 SMN2 mRNA (SMN2 Δ7) (FIG. 1). The reaction conditions were: 95° C. for 3 seconds (1 cycle) and 60° C. for 30 seconds (40 cycles). Amplification of TBP gene served as an internal control.

[4] = GM03813, 72 h, 100 nM (Example 1)
[5] = GM03813, 72 h, 1 nM (Example 4, FIG. 6A)
[6] = GM03813, 72 h, 1 nM (Example 8)
[7] = GM03813, 72 h, 1 nM to 50 nM (Example 1, FIG. 3B)
[8] = GM03813, 72 h, 5 nM (Example 4)
[9] = GM03813, 72 h, 5 nM (Example 8)
[10] = GM03813, 72 h, 25 nM (Example 4)
[11] = GM03813, 72 h, 25 nM (Example 8)
[12] = GM03813, 72 h, alone or in combination at 10 nM, RT-qPCR (Example 10, FIG. 12A)

Cc1cn2nc(-c3cc(=O)n4cc(N5CCNC6(CC6)C5)ccc4n3)cc(C)c2n1 [Risdiplam]
SMN protein fold change ([1]; 50 nM (Example 7, FIG. 9)): 1.7 fold
SMN protein fold change ([1]; 250 nM (Example 7)): 1.9 fold
SMN protein fold change ([1]; 1250 nM (Example 7)): 2.6 fold
SMN protein fold change ([2]; 50 nM (Example 9, FIG. 11)): 1.1 fold
SMN protein fold change ([2]; 250 nM (Example 9)): 1.7 fold
maximum increase of SMN2FL (ceiling effect) [3]: ~2 fold
SMN2FL mRNA fold change ([3]; GM03813, 72 h, 50 nM (Example 8, FIG. 10A-10C)): 1.0 fold
SMN2 Δ7 mRNA change ([3]; GM03813, 72 h, 50 nM, 250 nM and 1250 nM (Example 8)): decrease
decrease of SMN2 Δ7 mRNA [3, 4]: 36%
SMN2FL mRNA fold change ([3]; GM03813, 72 h, 100 nM (Example 1, FIG. 3C)): 1.2 fold
SMN2FL mRNA fold change ([3]; GM03813, 72 h, 250 nM (Example 8)): 1.4 fold
decrease of SMN2 Δ7 mRNA ([3]; GM03813, 72 h, 1000 nM (Example 1)): 98%
SMN2FL mRNA fold change ([3]; GM03813, 72 h, 1000 nM (Example 1, FIG. 3C)): 1.8 fold
SMN2FL mRNA fold change ([3]; GM03813, 72 h, 1250 nM (Example 8)): 2.1 fold

DS06-0004: saRNA targeting SMN2 promoter at -281; SEQ ID NO: 476/477 (Table 8: SEQ ID NO: 131/288) (chain 1 AGACGAGGCCUAAGCAACATT; chain 2 UGUUGCUUAGGCCUCGUCUTT; chemistry not given here)
SMN protein fold change ([1]; 1 nM (Example 3, FIG. 5)): 1.2 fold
SMN protein fold change ([1]; 5 nM (Example 3)): 1.3 fold
SMN protein fold change ([1]; 25 nM (Example 3)): 1.7 fold
SMN protein fold change ([2]; 1 nM (Example 5, FIG. 7)): 1.5 fold
SMN protein fold change ([2]; 5 nM (Example 5)): 1.5 fold
SMN protein fold change ([2]; 25 nM (Example 5)): 1.6 fold
SMN2 Δ7 mRNA fold change ([3]; GM03813, 72 h, 1 nM (Example 4)): 2.5 fold
SMN2FL mRNA fold change [3, 5]: 2.1 fold
SMN2FL mRNA fold change [3, 6]: 1.7 fold
SMN2 Δ7 mRNA fold change [3, 6]: 1.8 fold
highest fold change of SMN2FL mRNA [3, 7]: 2.9 fold
highest fold change of SMN2 Δ7 mRNA [3, 7]: 2.7 fold
SMN2FL mRNA fold change [3, 8]: 2.6 fold
SMN2 Δ7 mRNA fold change [3, 8]: 2.5 fold
SMN2FL mRNA fold change [3, 9]: 2.2 fold
SMN2 Δ7 mRNA fold change [3, 9]: 2.3 fold
SMN2FL mRNA fold change [3, 10]: 2.2 fold
SMN2 Δ7 mRNA fold change [3, 10]: 2.1 fold
SMN2FL mRNA fold change [3, 11]: 2.3 fold
SMN2 Δ7 mRNA fold change [3, 11]: 2.3 fold
SMN2 mRNA expression [3, 4]: did not further increase

Nusinersen [ASO-10-27]
SMN protein fold change ([1]; 1 nM (Example 3, FIG. 5)): 1.4 fold
SMN protein fold change ([1]; 5 nM (Example 3)): 2.3 fold
SMN protein fold change ([1]; 25 nM (Example 3)): 2.9 fold
SMN protein fold change ([2]; 1 nM (Example 5, FIG. 7)): 1.2 fold
SMN protein fold change ([2]; 5 nM (Example 5)): 1.5 fold
SMN protein fold change ([2]; 25 nM (Example 5)): 1.9 fold
SMN protein fold change ([2]; alone or in combination at 10 nM (Example 10, FIG. 12D-12E)): 2.3 fold
maximum increase of SMN2FL (ceiling effect) [3]: ~2 fold
SMN2FL mRNA fold change ([3]; GM03813, 72 h, 1 nM (Example 1, FIG. 3A)): 1.5 fold
SMN2FL mRNA fold change [3, 5]: 1.2 fold
SMN2 Δ7 mRNA change ([3]; GM03813, 72 h, 1 nM, 5 nM and 25 nM (Example 4)): decrease
SMN2 Δ7 mRNA change ([3]; GM03813, 72 h, 5 nM (Example 1)): decrease
SMN2FL mRNA fold change [3, 8]: 2.1 fold
SMN2FL mRNA fold change ([3]; GM03813, 72 h, 5 nM, peak increase (Example 1, FIG. 3A)): 2.0 fold
SMN2FL mRNA fold change [3, 10]: 2.1 fold
SMN2FL mRNA fold change [3, 12]: 1.4 fold
SMN2 Δ7 mRNA fold change [3, 12]: 0.3 fold
